The source of these data is article PMC8745345, “Hydroxy Pentacyclic Triterpene Acid, Kaempferol, Inhibits the Human 5-Hydroxytryptamine Type 3A Receptor Activity” (International Journal of Molecular Sciences, 2022).

Positions count from the first letter of the chain named.

In series [1] the target is T1, human 5-HT3A receptor N101A mutant (Homo sapiens, UniProt P46098, N123A).
T1 construct: expressed in transfected cells; host or cells: Xenopus oocytes injected with mutant mRNA
T1 sequence (P46098 24-478 N123A): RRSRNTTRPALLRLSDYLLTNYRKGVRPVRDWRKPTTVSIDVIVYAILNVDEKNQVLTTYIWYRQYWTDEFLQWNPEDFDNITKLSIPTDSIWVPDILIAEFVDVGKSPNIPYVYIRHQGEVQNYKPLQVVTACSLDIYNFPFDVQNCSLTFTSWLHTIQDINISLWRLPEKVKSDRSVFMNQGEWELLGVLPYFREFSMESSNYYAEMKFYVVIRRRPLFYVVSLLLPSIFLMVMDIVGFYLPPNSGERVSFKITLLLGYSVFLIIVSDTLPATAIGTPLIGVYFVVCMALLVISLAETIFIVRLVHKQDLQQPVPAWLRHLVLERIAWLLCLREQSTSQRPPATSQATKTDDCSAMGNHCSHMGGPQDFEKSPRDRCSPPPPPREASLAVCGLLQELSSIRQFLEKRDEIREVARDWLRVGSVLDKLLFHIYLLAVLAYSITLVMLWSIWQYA
Kind of series: Two-electrode voltage clamp, I5-HT inhibition, N101A mutant. The class given is cell-based. The method, then: Human 5-HT3A receptor cDNA was linearized using restriction enzyme XhoI. In vitro transcription was performed using an mMESSAGE mMACHINE T7 Transcription Kit (Thermo Fisher Scientific, Waltham, MA, USA). The final mRNA product was dissolved in 1X Diethyl Pyrocarbonate (RNase-free water) at a final concentration of 1 μg/μL and kept in a deep-freezer at −80 °C until used.
Xenopus oocytes were used in this study as cells for expression of human 5-HT3A receptor. All female frogs used in this experiment were obtained from the Korean Xenopus Resource Center for Research (KXRCR000001). […] Isolated oocytes were incubated with ND96 incubation buffer (96 mM NaCl, 2 mM KCl, 1 mM MgCl2, 1.8 mM CaCl2, 5 mM HEPES, 2.5 mM sodium pyruvate, and […], pH 7.4) at 18 °C until the experiment was performed. Human 5-HT3A receptor mRNA was injected into oocytes using a nanoinjector (Drummond Scientific, Broomall, PA, USA) with a mineral-filled 10 μL microdispenser (VWR, Piscataway, NJ, USA).
For the experiment, induced-inward current was converted to digital data with pClamp 10 software (Axon Instruments, Union City, CA, USA). All experiments were performed at room temperature using an oocyte clamp equipped with Digidata. The membrane holding potential was −80 mV.
The voltage relationship experiment for confirming the relationship between induce-inward current and voltage, the voltage was varied from −80 mV to +60 mV using a ramp protocol. Each microelectrode was filled with 3 M KCl having a resistance of 0.2 MΩ. Serotonin and KAE applied in the experiment were diluted in ND96 bath solution (96 mM NaCl, 2 mM KCl, 1 mM MgCl2, 1.8 mM CaCl2, and 5 mM HEPES, pH 7.5) to specified concentration. The rate of application of the reagent was 2 mL per minute. All recording data were analyzed using Clampfit 9.0 (Molecular Devices, San Jose, CA, USA). […]
All presented experiments were performed at least three times for scientific verification. […] Induced-inward current data were analyzed with SigmaPlot 10.0 software (Systat Software, Inc., San Jose, CA, USA).
On the technique in general: In two-electrode clamp one electrode senses voltage and the other passes current.

In series [2] the target is T2, human 5-HT3A receptor F199A mutant (Homo sapiens, UniProt P46098, F221A).
T2 sequence (P46098 24-478 F221A): T1 sequence (P46098 24-478 N123A) with A100N, F198A
Kind of series: Two-electrode voltage clamp, I5-HT inhibition, F199A mutant. The class given is cell-based. The note with it: −80 mV.
Procedure: Xenopus oocytes were used in this study as cells for expression of human 5-HT3A receptor. All female frogs used in this experiment were obtained from the Korean Xenopus Resource Center for Research (KXRCR000001). […] Isolated oocytes were incubated with ND96 incubation buffer (96 mM NaCl, 2 mM KCl, 1 mM MgCl2, 1.8 mM CaCl2, 5 mM HEPES, 2.5 mM sodium pyruvate, and 50 mg/mL gentamycin, pH 7.4) at 18 °C until the experiment was performed. Human 5-HT3A receptor mRNA was injected into oocytes using a nanoinjector (Drummond Scientific, Broomall, PA, USA) with a mineral-filled 10 μL microdispenser (VWR, Piscataway, NJ, USA).
The voltage relationship experiment for confirming the relationship between induce-inward current and voltage, the voltage was varied from −80 mV to +60 mV using a ramp protocol. Each microelectrode was filled with 3 M KCl having a resistance of 0.2 MΩ. […] The rate of application of the reagent was 2 mL per minute. All recording data were analyzed using Clampfit 9.0 (Molecular Devices, San Jose, CA, USA).
Point mutation was performed using Pfu DNA polymerase (Quikchange II Site-Directed Mutagenesis Kit). Chimeric primer design for PCR was performed under appropriate primer design guidelines. […]
(§1) All presented experiments were performed at least three times for scientific verification. […] Induced-inward current data were analyzed with SigmaPlot 10.0 software (Systat Software, Inc., San Jose, CA, USA). […]

The target of series [3] is T3, human 5-HT3A receptor D177A+F199A double mutant (Homo sapiens, UniProt P46098, D199A/F221A).
T3 sequence (P46098 24-478 D199A/F221A): T1 sequence (P46098 24-478 N123A) with A100N, D176A, F198A
Kind of series: Two-electrode voltage clamp, I5-HT inhibition, D177A+F199A double mutant. The format is cell-based.
Procedure: Xenopus oocytes were used in this study as cells for expression of human 5-HT3A receptor. All female frogs used in this experiment were obtained from the Korean Xenopus Resource Center for Research (KXRCR000001). […] Xenopus oocytes were extracted during ice incubation state and isolated as single oocytes using collagenase II (2 mg/mL) in OR2 buffer (82.5 mM NaCl, 2 mM KCl, 1 mM MgCl2, 5 mM HEPES, pH 7.4). Isolated oocytes were incubated with ND96 incubation buffer (96 mM NaCl, 2 mM KCl, 1 mM MgCl2, 1.8 mM CaCl2, 5 mM HEPES, 2.5 mM sodium pyruvate, and 50 mg/mL gentamycin, pH 7.4) at 18 °C until the experiment was performed. Human 5-HT3A receptor mRNA was injected into oocytes using a nanoinjector (Drummond Scientific, Broomall, PA, USA) with a mineral-filled 10 μL microdispenser (VWR, Piscataway, NJ, USA).
To confirm the KAE activity on the human 5-HT3A receptor, a two-electrode voltage clamp (OC-725C; Warner Instruments, Hamden, CT, USA) with a Digitata 1550A was used. For the experiment, induced-inward current was converted to digital data with pClamp 10 software (Axon Instruments, Union City, CA, USA). All experiments were performed at room temperature using an oocyte clamp equipped with Digidata. The membrane holding potential was −80 mV.
Point mutation was performed using Pfu DNA polymerase (Quikchange II Site-Directed Mutagenesis Kit). Chimeric primer design for PCR was performed under appropriate primer design guidelines. To remove methylated cDNA, Dpn I was used. Transformation of the mutated DNA used pGEM vector. pDNA was purified using a miniprep protocol. […]
as §1

On the set-up of series [4]: method as in PMID 21428901. Conditions: lipophilic, penetrates the lipid bilayer; cited from earlier work.

One may read the IC50 as the midpoint of a concentration-inhibition curve. Low values mean inhibition by little substance, high ones a need for much substance.

`O=c1c(O)c(-c2ccc(O)cc2)oc2cc(O)cc(O)c12` [KAE, kaempferol]: the IC50 is 56.4 ± 9.7 µM in series [1]; 21.5 ± 5.7 µM in series [2] (Table 1); 42.9 ± 10.2 µM in series [3] (D177A+F199A, −80 mV, Table 1). Besides, the Vmax is recorded as 83.7 ± 8.6% in series [1] (N101A, −80 mV); 53.3 ± 10.4% in series [2] (Table 1); 11.9 ± 1.2% in series [3] (D177A+F199A, −80 mV, Table 1). The “n (Hill coefficient)” value in series [1] (N101A, −80 mV) worked out at 1.1 ± 0.6; in series [2] it was 1.4 ± 0.4; in series [3] (D177A+F199A, −80 mV), 1.3 ± 0.4. Further, the Imax in series [3] (D177 and F199 double-mutant, Figure 5D) was 11.9 ± 1.2%. In addition, the “ability to cross the blood-brain barrier (BBB)” value in series [4] is “can cross the blood-brain barrier (BBB)”.
